{
  "source": "patent US20250170080A1",
  "about": "“COMPOSITIONS COMPRISING BUTYRIC ACID AND GLUCONIC ACID FOR THE TREATMENT OF DISORDERS AND SYNDROMES ASSOCIATED WITH INTESTINAL BARRIER DYSFUNCTIONS AND DYSBIOSIS” (DIFASS INTERNATIONAL S.P.A., priority 2022, published 2025)",
  "key": {"IL-6": {"tested_on": "IL-6", "experiment": "IL-6 release (ELISA) in reconstructed 3D human intestinal epithelium stressed with LPS+TNF-alpha", "conditions": "for effect on release of IL-6 (in words): LPS+TNF-alpha stressed tissue, vs positive control, t-test; for IL-6 Anti-inflammatory activity: compared with CTR+ (LPS+TNF-alpha), * = p<0.05 vs positive control; for IL-6 Anti-inflammatory activity / IL-6 % var. vs CTR −: reference dose; for IL-6 % var. vs CTR −: variation vs untreated tissues (CTR−), LPS+TNF-alpha stressed", "protocol": "(§1) Assays of pro-inflammatory cytokines TNF-alpha and IL-6 were evaluated. The biological model used in the assay is a model of human intestinal epithelium reconstructed in vitro in 3D, consisting of intestinal epithelial and endothelial cells and fibroblasts of human origin. The highly differentiated tissue model is produced at the air-liquid interface in easily manageable culture tissue inserts using a serum-free medium. […] The cells used to produce the tissue model were screened for potential biological contaminants, using specific tests and analyses to guarantee the functionality and quality of the tissues.\n(§2) The intestinal epithelium tissues reconstructed in vitro were exposed for 24 hours to the stressor lipopolysaccharide of bacterial origin (LPS) in combination with cytokine TNF-alpha, and simultaneously treated for a further 24 hours with each experimental condition examined. After the 48-hour experimental session, the culture media were harvested to assay pro-inflammatory cytokines TNF-alpha and IL-6.\n(§3) Each ingredient and the mixture selected for the treatments were diluted in H2O, taking account of the average intestinal volume of 80 ml. In particular, the following reference doses were used: • calcium butyrate 500 mg; • gluconic acid 29.87 mg; • gluconic acid+calcium butyrate=29.87 mg+500 mg.\n(§4) 50 μl of each sample was tested in the tissue model, simulating the following experimental conditions: • reference dose; The experimental protocol involved: • untreated tissues (CTR−); • tissues exposed to pro-inflammatory agents LPS+TNF-alpha (CTR+); • tissues exposed to pro-inflammatory agents LPS+TNF-alpha and treated with butyrate (calcium butyrate); • tissues exposed to pro-inflammatory agents LPS+TNF-alpha and treated with gluconic acid; • tissues exposed to pro-inflammatory agents LPS+TNF-alpha and treated with gluconic acid+butyrate (calcium butyrate) mixture; • Each test was conducted in duplicate. To monitor the ability of the tested ingredients to inhibit the inflammatory response in vitro in a system wherein an inflammatory condition has been induced, the production of pro-inflammatory cytokine TNF-alpha and interleukin 6 (IL-6) was evaluated. At the end of the treatments the culture media were harvested for the TNF-alpha and IL-6 assay using an ELISA kit. The data obtained were subjected to statistical analysis and compared using the t-test. The variations compared with the positive control are deemed significant for p<0.05 and indicated by “*”.\n(§5) The results are expressed as mean values ±standard deviation (expressed in pg/ml), as % variation compared with CTR− and as anti-inflammatory activity compared with CTR+."}, "TNF-alpha": {"tested_on": "TNF-alpha", "experiment": "TNF-alpha release (ELISA) in reconstructed 3D human intestinal epithelium stressed with LPS+TNF-alpha", "conditions": "for effect on release of TNF-alpha (in words): LPS+TNF-alpha stressed tissue, vs positive control, t-test; for TNF-alpha Anti-inflammatory activity: compared with CTR+ (LPS+TNF-alpha), * = p<0.05 vs positive control; for TNF-alpha Anti-inflammatory activity / TNF-alpha % var. vs CTR −: reference dose; for TNF-alpha % var. vs CTR −: variation vs untreated tissues (CTR−), LPS+TNF-alpha stressed", "protocol": "as §1, §2, §3, §4, §5"}, "[1]": {"conditions": "oral intake; avoids digestion and absorption in the small intestine; cited from earlier work"}},
  "data": [
    {"smiles": "CCCC(=O)O", "note": "[Butyrate, calcium butyrate]", "values": [
      {"measurement": "effect on release of IL-6 (in words)", "setting": "IL-6", "value": "significantly reduce release of the pro-inflammatory cytokine"},
      {"measurement": "IL-6 Anti-inflammatory activity", "setting": "IL-6", "value": 23.8, "unit": "%*"},
      {"measurement": "IL-6 % var. vs CTR −", "setting": "IL-6", "value": 61.5, "unit": "%"},
      {"measurement": "effect on release of TNF-alpha (in words)", "setting": "TNF-alpha", "value": "significantly reduce the release of the pro-inflammatory cytokine"},
      {"measurement": "TNF-alpha Anti-inflammatory activity", "setting": "TNF-alpha", "value": 28.8, "unit": "%*"},
      {"measurement": "TNF-alpha % var. vs CTR −", "setting": "TNF-alpha", "value": 40.5, "unit": "%"}
    ]},
    {"smiles": "O=C(O)[C@H](O)[C@@H](O)[C@H](O)[C@H](O)CO", "note": "[Gluconic acid, gluconic acid]", "values": [
      {"measurement": "gluconic acid introduced with the diet or diet supplements that reaches the large intestine", "setting": "[1]", "value": "over 70%"},
      {"measurement": "effect on release of IL-6 (in words)", "setting": "IL-6", "value": "significantly reduce release of the pro-inflammatory cytokine"},
      {"measurement": "IL-6 Anti-inflammatory activity", "setting": "IL-6", "value": 24.3, "unit": "%*"},
      {"measurement": "IL-6 % var. vs CTR −", "setting": "IL-6", "value": 60.5, "unit": "%"},
      {"measurement": "effect on release of TNF-alpha (in words)", "setting": "TNF-alpha", "value": "significantly reduce the release of the pro-inflammatory cytokine"},
      {"measurement": "TNF-alpha Anti-inflammatory activity", "setting": "TNF-alpha", "value": 30.3, "unit": "%*"},
      {"measurement": "TNF-alpha % var. vs CTR −", "setting": "TNF-alpha", "value": 37.6, "unit": "%"}
    ]}
  ]
}
